In ChEMBL document CHEMBL1150624, “Discovery of natural products from Curcuma longa that protect cells from beta-amyloid insult: a drug discovery effort against Alzheimer's disease” (2002):
Values after ≈ are worked out from the molar mass of the structure shown.

Assays:
PC-12 [1] = assay: Protection against beta-amyloid (1 to 42) insult in rat PC12 cells assessed as viable cells after 24 hrs by MTT assay; assay type: functional; conditions: PC-12, 24 h, read-out: ED50 (the source's name)
PC-12 [2] = assay: Protection against beta-amyloid (25 to 35) insult in rat PC12 cells assessed as viable cells after 24 hrs by MTT assay; assay type: functional; conditions: PC-12, 24 h, read-out: ED50 (the source's name)

With `COc1cc(/C=C/C(=O)/C=C/c2ccc(O)c(OC)c2)ccc1O` the EC50 (PC-12 [1]) was > 50 µg/mL and the EC50 (PC-12 [2]) was > 50 µg/mL.

For `O=C(/C=C/C=C/c1ccc(O)cc1)/C=C/c1ccc(O)cc1`, the EC50 (PC-12 [1]) was > 50 µg/mL and the EC50 (PC-12 [2]) was > 50 µg/mL.

In the case of `COc1cc(/C=C/C=C/C(=O)/C=C/c2ccc(O)c(OC)c2)ccc1O`, the EC50 (PC-12 [1]) is reported as > 50 µg/mL and the EC50 (PC-12 [2]) is reported as > 50 µg/mL.

`COc1cc(/C=C/C(=O)CC(=O)CC(O)c2ccc(O)c(OC)c2)ccc1O` (stereo not given) gave an EC50 (PC-12 [1]) of 44.3 µg/mL (≈ 115 µM) and an EC50 (PC-12 [2]) of 30.7 µg/mL (≈ 79.5 µM).

With `O=C(/C=C/c1ccc(O)cc1)CC(=O)CCc1ccc(O)cc1` the EC50 (PC-12 [1]) was 1 µg/mL (≈ 3.22 µM) and the EC50 (PC-12 [2]) was 0.5 µg/mL (≈ 1.61 µM).

With `O=C(/C=C/c1ccc(O)cc1)CC(=O)/C=C/c1ccc(O)cc1` [BISDEMETHOXYCURCUMIN] the EC50 (PC-12 [1]) was 3.5 µg/mL (≈ 11.4 µM) and the EC50 (PC-12 [2]) was 2 µg/mL (≈ 6.49 µM).

Molecule `COc1cc(/C=C/C(=O)COC(=O)/C=C/c2ccc(O)c(OC)c2)ccc1O` [CALEBI A] has an EC50 (PC-12 [1]) of 2 µg/mL (≈ 5.2 µM) and an EC50 (PC-12 [2]) of 1 µg/mL (≈ 2.6 µM).

In the case of `Nc1c(/N=N/c2ccc(-c3ccc(/N=N/c4cc(S(=O)(=O)[O-])c5ccccc5c4N)cc3)cc2)cc(S(=O)(=O)[O-])c2ccccc12.[Na+].[Na+]` [CONGO RED], the EC50 (PC-12 [1]) is reported as 39.2 µg/mL and the EC50 (PC-12 [2]) is reported as 37.5 µg/mL.

`COc1cc(/C=C/C(=O)CC(=O)/C=C/c2ccc(O)c(OC)c2)ccc1O` [CURCUMIN] was tested, and the EC50 (PC-12 [1]) was 10 µg/mL (≈ 27.1 µM) and the EC50 (PC-12 [2]) was 7 µg/mL (≈ 19 µM).

For `COc1cc(/C=C/C(O)=C/C(=O)/C=C/c2ccc(O)cc2)ccc1O` [DEMETHOXYCURCUMIN], the EC50 (PC-12 [1]) was 5 µg/mL (≈ 14.8 µM) and the EC50 (PC-12 [2]) was 4 µg/mL (≈ 11.8 µM).
